{"source": "patent US9857359B2", "about": "“Methods for determining drug efficacy using cereblon-associated proteins” (CELGENE CORPORATION, priority 2012, dated 2018)", "key": {"NCI-H929 tumor cells": {"tested_on": "NCI-H929 tumor cells", "test": "H929 xenograft anti-tumor activity", "assay_type": "in vivo, SCID mice", "details": "H929 MM cells in mice, oral daily", "protocol": "(§1) Female SCID mice (Fox Chase SCID®, C.B-17/Icr-Prkdcscid, Charles River) (Wilmington, Mass.) were injected subcutaneously in the right flank with total of 1×10^7 NCI-H929 tumor cells in 50% matrigel (BD Biosciences). […] Mice were monitored daily for health status as well as tumor growth. Tumors of all mice were measured with a digital caliper, and volumes were calculated with the following formula: tumor volume (mm^3)=length (mm)×width (mm)^2."}, "[1]": {"tested_on": "interferon regulatory factor 4 (IRF4)", "test": "IRF4 expression in DLBCL cells", "assay_type": "cell-based", "details": "ABC-DLBCL cells"}, "NF-κB": {"tested_on": "NF-κB", "test": "BCR-dependent NF-κB activation in DLBCL cells", "assay_type": "cell-based", "details": "via IRF4 inhibition"}, "Ikaros [2]": {"biological_target": "Ikaros (Homo sapiens, UniProt Q13422)", "sequence (Q13422 whole entry)": "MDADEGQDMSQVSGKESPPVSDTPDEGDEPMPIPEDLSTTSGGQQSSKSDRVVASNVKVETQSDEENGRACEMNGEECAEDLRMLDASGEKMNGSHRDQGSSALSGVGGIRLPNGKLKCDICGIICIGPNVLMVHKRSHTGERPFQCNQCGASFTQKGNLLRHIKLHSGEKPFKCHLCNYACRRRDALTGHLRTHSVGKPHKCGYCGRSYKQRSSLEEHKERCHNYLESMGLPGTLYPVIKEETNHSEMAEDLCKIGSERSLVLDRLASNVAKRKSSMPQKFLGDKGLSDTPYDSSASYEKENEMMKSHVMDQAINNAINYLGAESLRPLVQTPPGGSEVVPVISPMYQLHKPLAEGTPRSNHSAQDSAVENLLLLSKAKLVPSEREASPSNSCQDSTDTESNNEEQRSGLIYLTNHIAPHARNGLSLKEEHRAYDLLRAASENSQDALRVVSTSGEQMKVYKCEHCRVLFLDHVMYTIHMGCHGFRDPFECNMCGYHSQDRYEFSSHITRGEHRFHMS", "test": "Ikaros immunohistochemistry in H929 xenograft tumors", "assay_type": "in vivo, SCID mice", "set-up": "formalin fixed paraffin-embedded xenograft tumour sections were stained with antibodies; endogenous in cells; host or cells: NCI-H929 tumour xenograft in female SCID mice", "details": "7 days oral daily", "protocol": "as §1\nFour micron thick formalin fixed paraffin-embedded xenograft tumour sections were stained with antibodies to CRBN (rabbit monoclonoal Celgene CRBN65), Aiolos (rabbit polyclonal antibody; Santa Cruz, Dallas, Tex.), and Ikaros (rabbit polyclonal antibody; Millipore, Billerica, Mass.) using the Bond-Max automated slide strainer (Leica Microsystems, Buffalo Grove, Ill.) and the associated Bond Polymer Refine Detection Kit. Antigen retrieval was performed with Epitope Retrieval 2 (pH 9.0) for 20 min at 100° C. on the instrument. The slides were blocked for endogenous peroxidase activity with Peroxide Block for 5 min at room temperature. […] IHC staining intensity was scored on a scale of 0-3 (0=negative, 1=weak, 2=intermediate, 3=strong). Range of cells with specific immunoreactivity (<1%=0, 1-25%=1, 26-75%=2, and >75%=3) were recorded. Total score of the immunoreactivity intensity was calculated as product of intensity and range of positive cells."}, "Aiolos [3]": {"tested_on": "Aiolos", "test": "Aiolos regulation in cells with low or lost CRBN expression", "assay_type": "cell-based", "details": "loss of CRBN protein"}, "Aiolos [4]": {"tested_on": "Aiolos", "test": "Aiolos western blots in MM cells, T cells and B cells", "assay_type": "cell-based, human", "protocol": "U266 cells were obtained from ATCC (American Type Culture Collection, Manassas, Va., USA). DF15 cells were obtained from John Shaughnessy (University of Arkansas, Little Rock, Ark., USA). CD19+ B cells were purchased from HemaCare BioResearch Products (Van Nuys, Calif.). Cells were grown in RPMI-1640 medium (Cellgro, Manassas, Va.) containing 10% (V/V) heat-inactivated fetal bovine serum (Gibco, Grand Island, N.Y., USA) supplemented with 2 mM glutamine. […] Primary T cells were isolated from human leukocytes (Blood Center of New Jersey, East Orange, N.J.) by centrifugation through FICOLL® centrifugation medium following the ROSETETTESEP™ protocol (Stem Cell Technologies, Vancouver, Canada). […] Dexamethasone (Sigma, St. Louis, Mo.), melphalan (Sigma, St. Louis, Mo.) and bortezomib (Selleck Chemicals, Houston, Tex.) treated was for 6 hours. The final DMSO concentration is 0.1%. Cells were pre-treated with 10 μM MG-132 (Calbiochem Biochemicals, Billerica, Mass.) for 30 minutes prior to drug addition. Cells were harvested, washed in PBS and cell lysates separated on SDS-PAGE gels (Bio-Rad, Hercules, Calif.). Membranes were immunoblotted with anti-Aiolos (Santa Cruz Biotechnology, Dallas, Tex.), anti-Ikaros (Millipore, Billerica, Mass.) and anti-Actin (Sigma, St. Louis, Mo.; or LI-COR Biosciences, Lincoln, Nebr.) and secondary antibodies (LI-COR Biosciences, Lincoln, Nebr.). The blots were analyzed on ODESSEY® imager (LI-COR Biosciences, Lincoln, Nebr.).\nCell lysates were separated on a 10% TGX SDS-PAGE gel (Bio-Rad) and blotted for Aiolos (Santa Cruz, sc-10198), Ikaros (Millipore, ABD16) and Actin (Sigma, AC15)."}, "Aiolos [5]": {"tested_on": "Aiolos", "test": "Aiolos expression in CD20+ B cells and CD3+ T cells, percentage of DMSO control (FACS)", "assay_type": "cell-based", "details": "n=3", "protocol": "The Fix buffer I was warmed up to 37° C. in an incubator or water bath prior to use. The Perm Buffer III was chilled in a −20° C. freezer prior to use. The cells were collected at the end of treatment with testing compounds. One volume of the pre-warmed Fix Buffer I was mixed with one volume of cell suspension. If the volume of the cell suspension is greater than 100 μL, the cells were spun and resuspended in 100 μL medium or PBS. The buffer and the cell suspension were mixed well and incubated in a 37° C. water bath for 10 min. The cells were spun down at 250×g for 10 min and the supernatant was aspirated. The cells were washed once with BD Stain Buffer. The pellet was spun and the supernatant was removed. The cells were vortexed to be loosened, and permeabilized by slowly adding cold Perm Buffer III while vortexing or mixing. Subsequently, the cells were incubated on ice for 30 min. The cells were then spun down and washed twice with Stain Buffer. The supernatant was spun and aspirated. The cells were resuspended in a small volume of Stain buffer (50 or 100 μL containing from 200,000 to 1 million cells). Anti-IKFZ3 antibody was added to the cell suspension at 1:1000 dilution and incubated for 45 min at 4° C. The cells were then spun down and washed once with stain buffer. Secondary antibody was added to the cells at 1:5000 dilution and incubated at room temperature for 20 min in the dark. […]"}, "Ikaros [6]": {"tested_on": "Ikaros", "test": "Ikaros protein degradation in Jurkat cells", "assay_type": "cell-based", "protocol": "Jurkat cells were transfected with wildtype full length Aiolos and different lysine mutated full length Aiolos DNA (Origene, 5 μg DNA/100 μL R buffer/2×10^6 cells/shot) using Neon Transfection System (Invitrogen, Grand Island, N.Y.) with program 1350 voltage+10 width+3 pulse. GFP control DNA (Lonza) was also transfected. Transfected cells were cultured in 24-well plate with 1 mL RPMI+10% FBS at 37° C. for 6 hrs and then treated with DMSO or drug for another 48 hrs, Drug treated cells were collected for measuring Aiolos and Ikaros protein expression by western blot with antibodies against Aiolos (Santa Cruz, Dallas, Tex.) and Ikaros (Millipore, Billerica, Mass.)."}}}
{"smiles": "Nc1cccc2c1CN(C1CCC(=O)NC1=O)C2=O", "note": "(centres unmarked) [lenalidomide]", "values": [{"measurement": "In vivo antitumor activity", "setting": "NCI-H929 tumor cells", "result": "correlates with reduction of Aiolos and Ikaros levels"}, {"measurement": "IRF4 level associated with tumoricidal effect", "setting": "[1]", "result": "downregulation of interferon regulatory factor 4 (IRF4)"}, {"measurement": "BCR-dependent NF-κB activation", "setting": "NF-κB", "result": "caused downregulation of B cell receptor (BCR)-dependent NF-κB activation"}, {"measurement": "Ikaros in H929 MM cells in mice by immunohistochemistry", "setting": "Ikaros [2]", "result": "induces Aiolos and Ikaros degradation"}]}
{"smiles": "Nc1cccc2c1C(=O)N(C1CCC(=O)NC1=O)C2=O", "note": "(centres unmarked) [pomalidomide, reference compound]", "values": [{"measurement": "Down-regulation of Aiolos", "setting": "Aiolos [3]", "result": "loss of CRBN protein prevents down-regulation of Aiolos"}, {"measurement": "Aiolos expression", "setting": "Aiolos [4]; 10 μM lenalidomide, 1 μM pomalidomide, U266, DF15 MM cells, primary CD3+ T cells, primary CD19+ B cells, cycloheximide treated U266", "result": "reduced the expression of Aiolos and Ikaros"}, {"measurement": "Reduction of Aiolos levels compared with other treatment compounds for MM", "setting": "Aiolos [4]; MM cells", "result": "unique to immunomodulatory compounds provided herein"}, {"measurement": "Aiolos expression", "setting": "Aiolos [4]; six MM cell lines (OPM-2, RPMI-8226, LP-1, U266, H929 and JJN3), various concentrations", "result": "significantly inhibited Aiolos and Ikaros expression"}]}
{"smiles": "O=C1CC[C@H](N2Cc3c(OCc4ccc(CN5CCOCC5)cc4)cccc3C2=O)C(=O)N1", "note": "[Compound B, 3-(4-((4-(morpholinomethyl)benzyl)oxy)-1-oxoisoindolin-2-yl)piperidine-2,6-dione]", "values": [{"measurement": "Aiolos expression in CD3+ T cells", "setting": "Aiolos [5]", "result": "significantly inhibited Aiolos expression"}, {"measurement": "Aiolos expression in CD20+ B cells", "setting": "Aiolos [5]", "result": "significantly inhibited Aiolos expression"}]}
{"smiles": "Cc1nc2cccc(N)c2c(=O)n1C1CCC(=O)NC1=O", "note": "(centres unmarked) [Compound A, 3-(5-amino-2-methyl-4-oxo-4H-quinazolin-3-yl)-piperidine-2,6-dione]", "values": [{"measurement": "Ikaros protein degradation", "setting": "Ikaros [6]", "result": "Ikaros degradation is Aiolos-independent"}]}
